From the NIST ThermoML archive (doi:10.1016/j.jct.2006.05.009)
Numbers after ± are expanded uncertainties.

Key:
[1] = molar heat capacity at constant pressure; settings: 101.33 kPa, Crystal 2
[2] = Molar enthalpy of transition or fusion

Cn1c(=O)c2c(ncn2C)n(C)c1=O [caffeine]
Settings	Triple point temperature [K]
Crystal 1	509 ± 0.8
Crystal 2	413.39 ± 0.77

Settings	Molar enthalpy of transition or fusion [kcal/mol]	molar heat capacity at constant pressure [J/K/mol]
[1], 80.83 K	–	98.31 ± 1.8
[1], 84.15 K	–	101.95 ± 1.8
[1], 87.22 K	–	104.62 ± 1.9
[1], 90.15 K	–	106.27 ± 1.9
[1], 93.05 K	–	109.02 ± 1.9
[1], 95.91 K	–	112.23 ± 1.9
[1], 98.73 K	–	116.53 ± 2
[1], 101.49 K	–	119.06 ± 2
[1], 104.21 K	–	121.47 ± 2.1
[1], 106.88 K	–	123.99 ± 2.1
[1], 109.98 K	–	125.77 ± 2.1
[1], 113.03 K	–	127.49 ± 2.1
[1], 115.96 K	–	130.48 ± 2.2
[1], 118.81 K	–	132.67 ± 2.2
[1], 121.58 K	–	134.84 ± 2.2
[1], 124.27 K	–	136.76 ± 2.2
[1], 126.89 K	–	139.36 ± 2.3
[1], 129.43 K	–	140.97 ± 2.3
[1], 131.92 K	–	142.97 ± 2.3
[1], 134.34 K	–	144.92 ± 2.3
[1], 136.69 K	–	145.99 ± 2.4
[1], 138.99 K	–	148.53 ± 2.4
[1], 141.24 K	–	149.98 ± 2.4
[1], 143.42 K	–	150.47 ± 2.4
[1], 145.52 K	–	151.98 ± 2.4
[1], 148 K	–	155.83 ± 2.5
[1], 150.06 K	–	156.99 ± 2.5
[1], 152.08 K	–	157.88 ± 2.5
[1], 154.08 K	–	159.38 ± 2.5
[1], 156.06 K	–	160.61 ± 2.5
[1], 158.01 K	–	161.82 ± 2.5
[1], 159.95 K	–	162.55 ± 2.6
[1], 161.87 K	–	163.14 ± 2.6
[1], 163.77 K	–	164.64 ± 2.6
[1], 165.79 K	–	164.91 ± 2.6
[1], 168.47 K	–	166.4 ± 2.6
[1], 171.41 K	–	166.83 ± 2.6
[1], 174.32 K	–	167.9 ± 2.6
[1], 177.21 K	–	169.06 ± 2.6
[1], 180.03 K	–	169.58 ± 2.6
[1], 182.8 K	–	171.5 ± 2.7
[1], 185.57 K	–	172.7 ± 2.7
[1], 188.3 K	–	174.64 ± 2.7
[1], 191 K	–	176.3 ± 2.7
[1], 193.71 K	–	178.38 ± 2.7
[1], 196.39 K	–	179.3 ± 2.8
[1], 199.05 K	–	180.41 ± 2.8
[1], 201.7 K	–	181.59 ± 2.8
[1], 204.31 K	–	182.99 ± 2.8
[1], 206.91 K	–	184.79 ± 2.8
[1], 209.47 K	–	186.12 ± 2.8
[1], 212.08 K	–	187.01 ± 2.8
[1], 214.76 K	–	189.97 ± 2.9
[1], 217.47 K	–	191.2 ± 2.9
[1], 220.2 K	–	192.68 ± 2.9
[1], 222.95 K	–	194.21 ± 2.9
[1], 226.26 K	–	195.06 ± 2.9
[1], 230.04 K	–	197.34 ± 3
[1], 233.76 K	–	198.99 ± 3
[1], 237.43 K	–	200.1 ± 3
[1], 241.09 K	–	202.07 ± 3
[1], 244.7 K	–	202.6 ± 3
[1], 248.28 K	–	203.14 ± 3
[1], 251.82 K	–	203.17 ± 3
[1], 255.32 K	–	204.06 ± 3.1
[1], 258.78 K	–	205.75 ± 3.1
[1], 259.39 K	–	207.72 ± 3.1
[1], 262.25 K	–	207.77 ± 3.1
[1], 265.07 K	–	209.13 ± 3.1
[1], 267.83 K	–	210.94 ± 3.1
[1], 270.58 K	–	212.28 ± 3.2
[1], 273.31 K	–	213.56 ± 3.2
[1], 276.04 K	–	215.35 ± 3.2
[1], 278.76 K	–	217.05 ± 3.2
[1], 281.49 K	–	217.99 ± 3.2
[1], 284.22 K	–	220.07 ± 3.2
[1], 286.92 K	–	223.22 ± 3.3
[1], 289.58 K	–	223.75 ± 3.3
[1], 292.23 K	–	225.69 ± 3.3
[1], 294.87 K	–	226.47 ± 3.3
[1], 297.52 K	–	227.12 ± 3.3
[1], 300.14 K	–	227.17 ± 3.3
[1], 302.75 K	–	228.98 ± 3.4
[1], 305.33 K	–	230.29 ± 3.4
[1], 307.91 K	–	230.71 ± 3.4
[1], 310.51 K	–	233.27 ± 3.4
[1], 313.09 K	–	234.23 ± 3.4
[1], 315.65 K	–	234.61 ± 3.4
[1], 318.19 K	–	235.23 ± 3.4
[1], 320.86 K	–	237.37 ± 3.5
[1], 323.42 K	–	238.29 ± 3.5
[1], 325.99 K	–	238.92 ± 3.5
[1], 328.63 K	–	240.12 ± 3.5
[1], 331.31 K	–	243.07 ± 3.5
[1], 333.96 K	–	245.08 ± 3.5
[1], 336.61 K	–	246.31 ± 3.6
[1], 339.22 K	–	248.21 ± 3.6
[1], 341.76 K	–	249.29 ± 3.6
[1], 344.27 K	–	251.55 ± 3.6
[1], 346.83 K	–	253.2 ± 3.6
[1], 349.18 K	–	254.04 ± 3.7
[1], 351.69 K	–	255.21 ± 3.7
[1], 354.36 K	–	256.94 ± 3.7
[1], 357.01 K	–	258.67 ± 3.7
[1], 359.66 K	–	260.51 ± 3.7
[1], 362.27 K	–	261.86 ± 3.7
[1], 364.86 K	–	262.9 ± 3.8
[1], 367.44 K	–	264.99 ± 3.8
[1], 369.95 K	–	266.24 ± 3.8
[1], 372.45 K	–	266.46 ± 3.8
[1], 374.91 K	–	267.26 ± 3.8
[1], 377.39 K	–	269.44 ± 3.8
[1], 379.84 K	–	270.33 ± 3.8
[1], 382.28 K	–	271.84 ± 3.9
[1], 384.69 K	–	272.71 ± 3.9
[1], 387.08 K	–	274.88 ± 3.9
[2], Crystal 1	4.75 ± 0.22	–
[2], Crystal 2	0.82 ± 0.139	–
